{"source": "patent US8859761B2", "about": "“Refining process of Cefamandole sodium” (Hainan Lingkang Pharmaceutical Co., Ltd., priority 2011, dated 2014)", "origin": "cited, not measured here", "data": [{"smiles": "Cn1nnnc1SCC1=C(C(=O)[O-])N2C(=O)C(NC(=O)C(OC=O)c3ccccc3)C2SC1.[Na+]", "note": "[Cefamandole nafate, sodium 7-D-(2-formyloxyphenylacetamide)-3-[(1-methyl-1H-tetrazol-5-yl)thiomethyl]-3-cephem-4-carboxylate]", "values": [{"measurement": "solubility in ethanol", "setting": "ethanol", "value": "almost insoluble"}, {"measurement": "solubility in water", "setting": "water", "value": "dissolves well"}]}]}
